Experimental findings from US5220042A, “1,4-benzoquinone derivatives and benzene derivatives, and process for preparing the same” (priority 1984, dated 1993) are described below.

Read-outs that look alike come from different tables or passages of the source.

The target in one assay is T1, 5-lipoxygenase (Cavia porcellus, UniProt A0A286X958).
T1 construct: endogenous in cells; host or cells: guinea pig (Hartley strain) casein-elicited peritoneal exudate cells, intact cell suspension
T1 sequence (A0A286X958 1-674): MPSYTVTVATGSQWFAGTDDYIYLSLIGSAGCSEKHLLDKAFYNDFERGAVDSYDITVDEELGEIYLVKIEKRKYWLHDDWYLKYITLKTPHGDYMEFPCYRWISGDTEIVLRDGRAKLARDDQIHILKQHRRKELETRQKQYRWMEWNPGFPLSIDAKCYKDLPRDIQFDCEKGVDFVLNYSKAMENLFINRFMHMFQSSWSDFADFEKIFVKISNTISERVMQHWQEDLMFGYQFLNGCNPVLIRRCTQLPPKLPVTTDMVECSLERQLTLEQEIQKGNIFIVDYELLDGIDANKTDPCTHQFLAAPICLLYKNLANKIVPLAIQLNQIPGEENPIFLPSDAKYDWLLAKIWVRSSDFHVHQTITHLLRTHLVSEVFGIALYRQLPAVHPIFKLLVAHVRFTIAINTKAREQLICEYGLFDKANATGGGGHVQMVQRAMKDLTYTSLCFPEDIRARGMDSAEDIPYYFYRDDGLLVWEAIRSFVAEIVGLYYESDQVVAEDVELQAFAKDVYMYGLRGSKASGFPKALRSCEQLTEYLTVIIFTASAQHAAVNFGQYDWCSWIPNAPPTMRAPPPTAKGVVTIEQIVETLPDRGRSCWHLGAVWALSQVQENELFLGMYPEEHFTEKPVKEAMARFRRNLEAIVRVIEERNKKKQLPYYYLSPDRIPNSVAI
The experiment in a line: 5-Lipoxygenase inhibitory activity (conversion of 14C-arachidonic acid to 5-HETE) in guinea pig peritoneal exudate cells. It is filed as cell-based, guinea pig (Hartley strain). Particulars: read-out: inhibition ratio (%) of 5-lipoxygenase activity; for inhibition at 0.3 µM: concentration 3 × 10^-7 M; for inhibition at 1 µM: concentration 10^-6 M; for inhibition at 0.1 µM: concentration 10^-7 M. The gist of the method: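 Casein-elicited guinea pig peritoneal exudate cells (2.5×10^7 cells/ml, 1 mM CaCl2, 5.5 mM glucose) pretreated with 10^-5 M indomethacin, then compound 2 min at 30° C. Reaction started with 10 μm A23187 and 10 μm 14C-arachidonic acid, stopped after 3 min; metabolites separated by TLC and counted by liquid scintillation.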

Assay [1] has as its system SRS-A release from lung fragments. The experiment in a line: Inhibition of SRS-A release from sensitized guinea pig lung fragments. The settings on record: Cavia porcellus. The assay is classed as cell-based, guinea pig (Hartley strain). Summed up: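 Lung fragments from ovalbumin-sensitized male Hartley guinea pigs were preincubated 5 min at 37 °C in Tyrode's, given compound in DMSO for 5 min, then challenged with ovalbumin for 10 min. Released histamine was bioassayed by guinea pig ileum contraction at 30 s. SRS-A was read at 2 min with 10^-6 M pyrilamine against a crude SRS-A standard curve.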

The mark [2] stands for this setting: Table 2, dose 3 μM, read-out: Inhibition ratio (%) SRS-A.
Setting [3] is: Table 2, dose 30 μM, read-out: Inhibition ratio (%) SRS-A.
Where [4] appears, read: Table 2B, 3 μM, read-out: Inhibitory activities on SRS-A (%).
Where [5] appears, read: Table 2B, 30 μM, read-out: Inhibitory activities on SRS-A (%).

As to `COC1=CC(=O)C(OC)=C(CCCCCC2=C(OC)C(=O)C=C(OC)C2=O)C1=O` [Test Compound No. 9, 2,2'-Pentamethylenebis(3,6-dimethoxy-1,4-benzoquinone)], the inhibition at 0.3 µM at 5-lipoxygenase came out at 55%. Also, the inhibition at 1 µM on 5-lipoxygenase is 74%. The inhibition at 0.1 µM at 5-lipoxygenase was 38%. The inhibition at 3 µM in assay [1] (setting [2]) and in assay [1] (setting [4]) was 50.3% each time. Further, the values for the inhibition at 30 µM in assay [1] (setting [3]) and in assay [1] (setting [5]) were > 94.8% and 94.2%, respectively.
For `COC1=CC(=O)C(OC)=C(CCCCCCCCCC2=C(OC)C(=O)C=C(OC)C2=O)C1=O` [Test Compound No. 13, 2,2'-Nonamethylenebis(3,6-dimethoxy-1,4-benzoquinone)], at 5-lipoxygenase, the inhibition at 0.3 µM came out at 72%, the inhibition at 1 µM was determined as 91% and the inhibition at 0.1 µM worked out at 43%. In addition, in assay [1] (setting [2]), the inhibition at 3 µM was 22.4%. The inhibition at 30 µM in assay [1] (setting [3]) is 43.9%. Besides, the inhibition at 3 µM in assay [1] (setting [4]) turned out to be 22.4%. The inhibition at 30 µM in assay [1] (setting [5]) worked out at 43.9%.
On to `COC1=CC(=O)C(OC)=C(CCCCCC#CCCCCCC2=C(OC)C(=O)C=C(OC)C2=O)C1=O` [Test Compound No. 16, 2,2'-(6-Dodecynylene)bis(3,6-dimethoxy-1,4-benzoquinone)], for which the inhibition at 0.3 µM on 5-lipoxygenase came to 84%. Moreover, the inhibition at 1 µM on 5-lipoxygenase is 87%. For the same molecule, the inhibition at 0.1 µM on 5-lipoxygenase came out at 61%. In addition, the inhibition at 3 µM in assay [1] (setting [2]) and in assay [1] (setting [4]) was 23.4% each time. Also, the inhibition at 30 µM in assay [1] (setting [3]) and in assay [1] (setting [5]) was 43.9% each time.
